Among the test systems are HOP-18; SNB-78; DMS-114; M19-MEL; KM-20L2; DLD-1; XF498; RXF 631; LXFL 529.
Holding throughout (assay): DTP human tumour cell line panel, 48 h

Structures are written as SMILES.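 Values below derive from 48-hour exposures of cells grown in 96-well plates, with endpoints linearly interpolated between the two concentrations bracketing the appropriate inhibition level. GI50: concentration for 50% inhibition of growth.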 The source made the active and inactive calls. Cut-off read from the data, not from the text of the source: active = GI50 up to about 1.1 µM and inactive = higher.

The term GI50 denotes the concentration giving 50% growth inhibition.

As to `Cc1nc(-n2nc(-c3ccccc3)cc2-c2ccccc2)sc1C(=O)/C=C/c1ccc(Cl)cc1`, the GI50 was 14.4 µM (inactive) with HOP-18; 46 µM (inactive) in the assay on SNB-78; 11.4 µM (inactive) in the assay with DMS-114; 18.4 µM (inactive) in the assay with M19-MEL; 24.4 µM (inactive) with KM-20L2; 13.2 µM (inactive) in the assay on DLD-1.
Regarding `CCOC(=O)C(=O)C1C(=O)Nc2ccccc21` (stereo unspecified), the GI50 in the assay on XF498, with RXF 631, with DMS-114, in the assay with M19-MEL, with LXFL 529 and in the assay with DLD-1 was > 100 µM (inactive) throughout.
Take `COc1ccc(CC2NCCc3cc(OC)c(OC)cc32)cc1Br` (stereo unspecified): the GI50 is 23.1 µM (inactive) in the assay with HOP-18; 11.9 µM (inactive) in the assay on XF498; 42.4 µM (inactive) in the assay with SNB-78; 17.6 µM (inactive) with DMS-114; 20.7 µM (inactive) with M19-MEL; 26.9 µM (inactive) with LXFL 529. The GI50 was 25.8 µM (inactive) with KM-20L2 and 66.7 µM (inactive) in the assay with DLD-1.
For `Nc1nc(F)nc2c1ncn2C1OC(COP(=O)(O)O)C(O)C1O` (stereo unspecified), the GI50 in the assay on HOP-18 was 63.2 µM (inactive); in the assay with XF498 it was 66.8 µM (inactive); in the assay on SNB-78, 186 µM (inactive); in the assay on DMS-114, 10.7 µM (inactive); in the assay on M19-MEL, 46.1 µM (inactive); in the assay on KM-20L2, 105 µM (inactive). In the assay on DLD-1, the GI50 was 101 µM (inactive).
For the compound `COc1cc2c(c(OC)c1OC)-c1ccc(SC)c(=O)cc1C(CO)C2` (stereo unspecified), the GI50 in the assay on HOP-18 was 24.8 µM (inactive); in the assay with XF498, 0.149 µM (active); in the assay with RXF 631, < 0.01 µM (active); in the assay on SNB-78, 0.0966 µM (active); in the assay with DMS-114, 0.0791 µM (active); with M19-MEL, 0.15 µM (active). Also, the values for the GI50 in the assay on LXFL 529, with KM-20L2 and in the assay on DLD-1 were 0.136 µM (active), 0.157 µM (active) and 0.169 µM (active), respectively.
Regarding `CN(C)[C@H]1CC[C@H]2[C@@H]3CCC4C[C@@H](NC(=O)NC(Cc5ccccc5)c5nccs5)CC[C@]4(C)[C@H]3CC[C@]12C` (stereo partly specified), the GI50 in the assay on XF498 is 1.2 µM (inactive); with RXF 631 it was 1.92 µM (inactive); in the assay with DMS-114, 1.79 µM (inactive); in the assay with M19-MEL, 1.85 µM (inactive); in the assay with LXFL 529, 0.488 µM (active); in the assay on KM-20L2, 1.19 µM (inactive). For the same compound, the GI50 in the assay with DLD-1 is 1.74 µM (inactive).
Take `CCCCCC1CC=CC(NC(=O)OCc2ccccc2)C1/C=C/CCCC1OCCO1` (stereo unspecified): the GI50 in the assay on HOP-18 is > 100 µM (inactive); with XF498, 52 µM (inactive); in the assay on RXF 631 it was 48.3 µM (inactive); in the assay with SNB-78 it was > 100 µM (inactive); in the assay on DMS-114, 21.4 µM (inactive); in the assay on M19-MEL, > 91.4 µM (inactive). Also, the GI50 with LXFL 529 is 40.6 µM (inactive); with KM-20L2, > 100 µM (inactive); in the assay with DLD-1, > 66.5 µM (inactive).
For the compound `O=CC(O)C(O)C(O)COc1cc(CO)cc2c1C(=O)c1ccccc1C2=O` (stereo unspecified), the GI50 was > 100 µM (inactive) in the assay with HOP-18; > 100 µM (inactive) in the assay with XF498; > 100 µM (inactive) in the assay with RXF 631; > 100 µM (inactive) with SNB-78; > 89.5 µM (inactive) in the assay with DMS-114; 37.6 µM (inactive) in the assay on M19-MEL. For the same compound, the GI50 in the assay on LXFL 529, with KM-20L2 and in the assay with DLD-1 was > 100 µM (inactive) throughout.
For `Cc1ccc(NCCN(C)C)c2c(=O)c3cc(O)ccc3sc12`, the GI50 was 3.64 µM (inactive) with HOP-18; 4.12 µM (inactive) in the assay on XF498; 15.6 µM (inactive) in the assay with SNB-78; 11.7 µM (inactive) in the assay on DMS-114; 10.4 µM (inactive) with M19-MEL; 8.18 µM (inactive) with LXFL 529. For the same compound, the results for the GI50 in the assay on KM-20L2 and in the assay with DLD-1 were 8.87 µM (inactive) and 6.61 µM (inactive), respectively.
For `C/C(=N\NC(=O)c1ccccc1O)C1=CNc2ccccc2S1`, the GI50 in the assay with HOP-18 is 6.25 µM (inactive); with XF498, 3.99 µM (inactive); with SNB-78, 7.94 µM (inactive); in the assay on M19-MEL, 7.53 µM (inactive); with LXFL 529, 0.875 µM (active); in the assay with KM-20L2, 15.7 µM (inactive). Further, the GI50 with DLD-1 was 4.23 µM (inactive).
As to `Cn1ncc(=S)[nH]c1=S`, the GI50 is 47.6 µM (inactive) in the assay on HOP-18; > 100 µM (inactive) in the assay on XF498; > 100 µM (inactive) in the assay with RXF 631; > 100 µM (inactive) in the assay on SNB-78; > 100 µM (inactive) in the assay on DMS-114; > 100 µM (inactive) in the assay with M19-MEL. Also, the GI50 in the assay with LXFL 529, in the assay with KM-20L2 and in the assay with DLD-1 was > 100 µM (inactive) in each case.
As to `CCCCCn1cnc2c1S(=O)(=O)N(C)C(NC(=O)c1ccccc1)=N2`, the GI50 in the assay on SNB-78, in the assay on DMS-114, in the assay with M19-MEL, with LXFL 529, in the assay on KM-20L2 and in the assay with DLD-1 was > 100 µM (inactive) throughout.
Consider `CN(C)C(=N)NC(N)=S`, for which the GI50 in the assay with HOP-18, in the assay on XF498, in the assay with RXF 631, with SNB-78, in the assay on DMS-114 and in the assay with M19-MEL was > 100 µM (inactive) each time. Besides, the GI50 in the assay with LXFL 529, in the assay with KM-20L2 and in the assay with DLD-1 was > 100 µM (inactive) throughout.
For the compound `COc1ccc(N2C(=O)c3c(c4[nH]c5ccccc5c4c4ccc(C(C)(C)C)cc34)C2=O)cc1`, the GI50 is 58.1 µM (inactive) in the assay with HOP-18; 20.7 µM (inactive) in the assay on XF498; 40.6 µM (inactive) in the assay with RXF 631; 25.7 µM (inactive) in the assay on SNB-78; > 100 µM (inactive) in the assay with DMS-114; 50.9 µM (inactive) in the assay with M19-MEL. Further, the results for the GI50 in the assay with LXFL 529, in the assay with KM-20L2 and in the assay on DLD-1 were 78.5 µM (inactive), > 100 µM (inactive) and > 100 µM (inactive), respectively.
On to `Cc1ccc(S(=O)(=O)NNS(C)(=O)=O)cc1`, for which the GI50 in the assay on DMS-114, in the assay on M19-MEL, in the assay on LXFL 529, in the assay with KM-20L2 and in the assay on DLD-1 was > 100 µM (inactive) in each case.
With `CCOc1ccccc1NC(=O)CCc1n[nH]c(=S)o1`, the GI50 in the assay with XF498, in the assay on SNB-78, in the assay on M19-MEL, with LXFL 529, in the assay on KM-20L2 and in the assay on DLD-1 was > 100 µM (inactive) in each case.
For `CC(=O)c1cccc(NC(=O)C(=O)NNc2nnc(S)n2N)c1`, the GI50 was 11.8 µM (inactive) in the assay with HOP-18; 12.7 µM (inactive) in the assay with XF498; 3.01 µM (inactive) in the assay with RXF 631; 11.3 µM (inactive) in the assay with SNB-78; 1.85 µM (inactive) in the assay with DMS-114; 0.805 µM (active) in the assay with M19-MEL. In addition, the GI50 with LXFL 529 is 10.7 µM (inactive); in the assay on KM-20L2, 14.1 µM (inactive); in the assay on DLD-1, 7.38 µM (inactive).
Take `CCOC(=O)C1Oc2ccc([N+](=O)[O-])cc2C1(C)O` (stereo unspecified): the GI50 in the assay on XF498, with SNB-78, in the assay on DMS-114, in the assay with M19-MEL, with LXFL 529 and in the assay on DLD-1 was > 100 µM (inactive) in each case.
With `CCOC(OC1=C(C#N)CCC1)C(CC)[Se]c1ccccc1` (stereo unspecified), the GI50 with HOP-18 is 27.2 µM (inactive); in the assay with XF498, 24.9 µM (inactive); with SNB-78 it was 29.3 µM (inactive); in the assay on DMS-114 it was 3.1 µM (inactive); in the assay with M19-MEL it was 13.9 µM (inactive); in the assay on LXFL 529, 16.5 µM (inactive). The GI50 is 26.1 µM (inactive) in the assay on KM-20L2 and 19.6 µM (inactive) in the assay with DLD-1.
As for `C=CCOC1=C2CC[C@H](O)[C@@]2(C)CCC1=O`, the GI50 in the assay with HOP-18, in the assay on SNB-78, with DMS-114, with M19-MEL, with LXFL 529 and in the assay on KM-20L2 was > 100 µM (inactive) in each case. For the same compound, in the assay on DLD-1, the GI50 was > 100 µM (inactive).
For the compound `CC(=O)OCC1OC(n2c(=S)n(-c3ccccc3)c(=O)c3cc(Br)ccc32)C(OC(C)=O)C(OC(C)=O)C1OC(C)=O` (stereo unspecified), the GI50 with RXF 631, with DMS-114, in the assay on M19-MEL, in the assay with LXFL 529, in the assay with KM-20L2 and in the assay with DLD-1 was > 100 µM (inactive) in each case.
With `CC1=Nn2c(nnc2-c2ccccc2Cl)NC(C)(C)C1`, the GI50 is > 100 µM (inactive) with XF498; > 100 µM (inactive) in the assay with SNB-78; > 100 µM (inactive) in the assay on M19-MEL; 63.7 µM (inactive) with LXFL 529; > 100 µM (inactive) in the assay with KM-20L2; 54.7 µM (inactive) with DLD-1.
As for `C=CC/C=C/C/C=C/CCCCCCCc1cccc(O)c1C(=O)O`, the GI50 with HOP-18 is 17.3 µM (inactive); in the assay on XF498, > 100 µM (inactive); in the assay with RXF 631 it was > 100 µM (inactive); in the assay on SNB-78, > 100 µM (inactive); in the assay on DMS-114 it was > 100 µM (inactive); with M19-MEL, 43.9 µM (inactive). For the same compound, the GI50 in the assay on LXFL 529 was 36.1 µM (inactive); in the assay with KM-20L2, 86.1 µM (inactive); with DLD-1, 35 µM (inactive).
